The experiment concerns Plasmodium falciparum 3D7. Nature of the experiment: P. falciparum 3D7 asexual blood stage assay, Assay Procedure Version 1 (SYBR green readout). The class given is cell-based. The note with it: 3D7, Erythrocyte, Version 1 of the assay procedure (no asterisk), 72 h incubation in infected erythrocytes, 10,000 nM to 0.51 nM. The method in brief:
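Erythrocytes at 5% haematocrit, 0.5% parasitaemia, exposed 72 h at 37° C (1% O2, 3% CO2) to 10-point 3-fold titrations, 10,000–0.51 nM final in 0.5% DMSO. SYBR green in lysis buffer overnight, fluorescence 485/528 nm; % inhibition versus controls, EC50 from 4-parameter fit.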
As a reminder, the IC50 is the point on the concentration scale where inhibition reaches its midpoint. Regarding `COc1cc(Nc2cccc([C@]3(C)CC(=O)N(C4CCOCC4)C(=N)N3)c2Cl)cc(OC)c1` [Example 161, (6S)-6-[2-Chloro-3-(3,5-dimethoxyanilino)phenyl]-2-imino-6-methyl-3-(tetrahydro-pyran-4-yl)hexahydropyrimidin-4-one], the midpoint of inhibition, the IC50, lay at 1680 nM.

`C[C@@]1(c2cccc(Nc3ccc(Cl)cc3)c2Cl)CC(=O)N(C2CCOCC2)C(=N)N1` [Example 162, (6S)-6-[2-Chloro-3-(4-chloro-anilino)phenyl]-2-imino-6-methyl-3-(tetrahydropyran-4-yl)hexahydropyrimidin-4-one] had an IC50 of 905 nM.

Molecule `C[C@@]1(c2cccc(Nc3cccc(C(F)(F)F)c3)c2Cl)CC(=O)N(C2CCOCC2)C(=N)N1` [Example 163, (6S)-6-{2-Chloro-3-[3-(trifluoromethyl)anilino]-phenyl}-2-imino-6-methyl-3-(tetrahydropyran-4-yl)-hexahydropyrimidin-4-one] came in with a concentration for half-maximal inhibition (IC50) of 913 nM.

Molecule `COc1ccc(Nc2cccc([C@]3(C)CC(=O)N(C4CCOCC4)C(=N)N3)c2Cl)cc1OC` [Example 164, (6S)-6-[2-Chloro-3-(3,4-dimethoxyanilino)phenyl]-2-imino-6-methyl-3-(tetrahydro-pyran-4-yl)hexahydropyrimidin-4-one] had an IC50 of 2200 nM.

Regarding `Cc1ccccc1Nc1cccc([C@]2(C)CC(=O)N(C3CCOCC3)C(=N)N2)c1Cl` [Example 165, (6S)-6-[2-Chloro-3-(2-methyl-anilino)phenyl]-2-imino-6-methyl-3-(tetrahydropyran-4-yl)hexahydropyrimidin-4-one], half-maximal inhibition (IC50) was put at 890 nM.

Take `COC(=O)c1cccc(Nc2cccc([C@]3(C)CC(=O)N(C4CCOCC4)C(=N)N3)c2Cl)c1` [Example 166, Methyl 3-{2-chloro-3-[(4S)-2-imino-4-methyl-6-oxo-1-(tetrahydropyran-4-yl)-hexahydropyrimidin-4-yl]-anilino}benzoate]: the IC50 came to 1780 nM.

For the molecule `C[C@@]1(c2cccc(Nc3ccc(F)c(Cl)c3)c2Cl)CC(=O)N(C2CCOCC2)C(=N)N1` [Example 167, (6S)-6-[2-Chloro-3-(3-chloro-4-fluoroanilino)phenyl]-2-imino-6-methyl-3-(tetrahydropyran-4-yl)hexahydropyrimidin-4-one], it took 627 nM to reach half-maximal inhibition (IC50).

Molecule `C[C@@]1(c2cccc(Nc3cccc(F)c3)c2Cl)CC(=O)N(C2CCOCC2)C(=N)N1` [Example 168, (6S)-6-[2-Chloro-3-(3-fluoro-anilino)phenyl]-2-imino-6-methyl-3-(tetrahydropyran-4-yl)hexahydropyrimidin-4-one] had an IC50 of 252 nM.

`C[C@@]1(c2cccc(Nc3ccc(F)cc3)c2Cl)CC(=O)N(C2CC3(COC3)C2)C(=N)N1` [Example 171, (6S)-6-[2-Chloro-3-(4-fluoro-anilino)phenyl]-2-imino-6-methyl-3-(2-oxaspiro[3.3]-heptan-6-yl)hexahydro-pyrimidin-4-one] gave an IC50 of 1140 nM.

Consider `CC1(O)CC(N2C(=N)N[C@](C)(c3cccc(Nc4ccc(F)cc4)c3Cl)CC2=O)C1` (stereo partly drawn) [Example 172, (6S)-6-[2-Chloro-3-(4-fluoro-anilino)phenyl]-3-(3-hydroxy-3-methylcyclobutyl)-2-imino-6-methylhexahydropyrimidin-4-one], for which the midpoint of inhibition, the IC50, lay at 228 nM.

In the case of `C[C@@]1(c2cccc(Nc3ccc(C(F)(F)F)cc3)c2Cl)CC(=O)N(CC2CCOCC2)C(=N)N1` [Example 173, (6S)-6-{2-Chloro-3-[4-(trifluoromethyl)anilino]-phenyl}-2-imino-6-methyl-3-(tetrahydropyran-4-ylmethyl)-hexahydropyrimidin-4-one], the IC50 amounted to 1540 nM.

In turn, `CC1(CN2C(=N)N[C@](C)(c3cccc(Nc4ccc(F)cc4)c3Cl)CC2=O)COC1` [Example 175, (6S)-6-[2-Chloro-3-(4-fluoro-anilino)phenyl]-2-imino-6-methyl-3-[(3-methyloxetan-3-yl)methyl]hexahydropyrimidin-4-one] registered an IC50 of 2820 nM.

As to `C[C@@]1(c2ccc(F)c(Nc3ccc(F)cc3)c2Cl)CC(=O)N(C2CCOCC2)C(=N)N1` [Example 206, (6S)-6-[2-Chloro-4-fluoro-3-(4-fluoroanilino)phenyl]-2-imino-6-methyl-3-(tetrahydro-pyran-4-yl)hexahydropyrimidin-4-one], the IC50 came out at 243 nM.

For `Cc1ccc(Nc2c(F)ccc([C@]3(C)CC(=O)N(C4CCOCC4)C(=N)N3)c2Cl)cn1` [Example 207, (6S)-6-{2-Chloro-4-fluoro-3-[(6-methylpyridin-3-yl)amino]phenyl}-2-imino-6-methyl-3-(tetrahydropyran-4-yl)hexahydropyrimidin-4-one], the midpoint of inhibition, the IC50, lay at 659 nM.

The values above are taken from patent publication US11479546B2, “Antimalarial hexahydropyrimidine analogues” (UCB Biopharma SRL, priority 2018, dated 2022).
